Laboratory results from ChEMBL document CHEMBL1201862, “PubChem BioAssay data set” (2004).
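Step 1: Grow cells in 96-well plates. Step 2: Expose to compound for 48 hours at 5 concentrations. Step 3: Interpolate endpoints linearly; if unreached, use highest concentration. Abbreviation: GI50, concentration required for 50% inhibition of growth.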 The source made the active and inactive calls. No stated cut-off is given here; in the data, active = GI50 up to about 1.1 µM and inactive = higher.

Tests used:
Assay in all cases: NCI-60 cell line screen, 48 h
786-0 = test system: 786-0
A498 = test system: A498
A549 = test system: A549
ACHN = test system: ACHN
CAKI-1 = test system: CAKI-1
CCRF-CEM = test system: CCRF-CEM
COLO 205 = test system: COLO 205
DLD-1 = test system: DLD-1
DMS-114 = test system: DMS-114
DMS-273 = test system: DMS-273
EKVX = test system: EKVX
HCC 2998 = test system: HCC 2998
HCT-116 = test system: HCT-116
HCT-15 = test system: HCT-15
HL-60 = test system: HL-60
HOP-18 = test system: HOP-18
HOP-62 = test system: HOP-62
HT-29 = test system: HT-29
IGROV-1 = test system: IGROV-1
K562 = test system: K562
KM-20L2 = test system: KM-20L2
KM12 = test system: KM12
LOX IMVI = test system: LOX IMVI
LXFL 529 = test system: LXFL 529
M14 = test system: M14
MOLT-4 = test system: MOLT-4
Malme-3M = test system: Malme-3M
NCI-H226 = test system: NCI-H226
NCI-H23 = test system: NCI-H23
NCI-H460 = test system: NCI-H460
NCI-H522 = test system: NCI-H522
OVCAR-3 = test system: OVCAR-3
OVCAR-4 = test system: OVCAR-4
OVCAR-5 = test system: OVCAR-5
OVCAR-8 = test system: OVCAR-8
RPMI-8226 = test system: RPMI-8226
RXF 393 = test system: RXF 393
SF-268 = test system: SF-268
SF-295 = test system: SF-295
SK-MEL-28 = test system: SK-MEL-28
SK-MEL-2 = test system: SK-MEL-2
SK-MEL-5 = test system: SK-MEL-5
SK-OV-3 = test system: SK-OV-3
SN12C = test system: SN12C
SNB-19 = test system: SNB-19
SNB-75 = test system: SNB-75
SNB-78 = test system: SNB-78
SR = test system: SR
SW-620 = test system: SW-620
TK-10 = test system: TK-10
U-251 = test system: U-251
UACC-257 = test system: UACC-257
UACC-62 = test system: UACC-62
UO-31 = test system: UO-31
HOP-92 = test system: HOP-92
M19-MEL = test system: M19-MEL
SF-539 = test system: SF-539

O=C1C(=O)C2(CC1S(=O)(=O)c1ccccc1)c1ccccc1-c1ccccc12 (stereo unspecified)
GI50 (786-0): 26.6 µM (inactive) | GI50 (A498): 19.1 µM (inactive) | GI50 (A549): 24.7 µM (inactive) | GI50 (ACHN): 28.6 µM (inactive) | GI50 (CAKI-1): 29 µM (inactive) | GI50 (CCRF-CEM): 24.7 µM (inactive) | GI50 (COLO 205): 12.7 µM (inactive) | GI50 (DLD-1): 24.8 µM (inactive) | GI50 (DMS-114): 22 µM (inactive) | GI50 (DMS-273): 19.5 µM (inactive) | GI50 (EKVX): 28.8 µM (inactive) | GI50 (HCC 2998): 14.7 µM (inactive) | GI50 (HCT-116): 17.3 µM (inactive) | GI50 (HCT-15): 16.7 µM | GI50 (HL-60): 27.9 µM (inactive) | GI50 (HOP-18): > 10 µM (inactive) | GI50 (HOP-62): 21.1 µM (inactive) | GI50 (HT-29): 27 µM (inactive) | GI50 (IGROV-1): 23.1 µM (inactive) | GI50 (K562): 27.6 µM (inactive) | GI50 (KM-20L2): 44 µM (inactive) | GI50 (KM12): 19.2 µM (inactive) | GI50 (LOX IMVI): 18.5 µM (inactive) | GI50 (LXFL 529): 16.3 µM (inactive) | GI50 (M14): 13.9 µM (inactive) | GI50 (MOLT-4): 20.4 µM (inactive) | GI50 (Malme-3M): > 10 µM (inactive) | GI50 (NCI-H226): 37.4 µM (inactive) | GI50 (NCI-H23): 15.5 µM (inactive) | GI50 (NCI-H460): 18.6 µM (inactive) | GI50 (NCI-H522): 22.5 µM (inactive) | GI50 (OVCAR-3): > 10 µM (inactive) | GI50 (OVCAR-4): 48.9 µM (inactive) | GI50 (OVCAR-5): 23 µM (inactive) | GI50 (OVCAR-8): 17.9 µM (inactive) | GI50 (RPMI-8226): 26.4 µM (inactive) | GI50 (RXF 393): 18.7 µM (inactive) | GI50 (SF-268): 27.4 µM (inactive) | GI50 (SF-295): 21.3 µM (inactive) | GI50 (SK-MEL-28): 19.7 µM (inactive) | GI50 (SK-MEL-2): 18.1 µM (inactive) | GI50 (SK-MEL-5): 14.6 µM (inactive) | GI50 (SK-OV-3): 38.9 µM (inactive) | GI50 (SN12C): 28.8 µM (inactive) | GI50 (SNB-19): 20.6 µM (inactive) | GI50 (SNB-75): 37.3 µM (inactive) | GI50 (SNB-78): 17.5 µM (inactive) | GI50 (SR): 24 µM (inactive) | GI50 (SW-620): 34.6 µM (inactive) | GI50 (TK-10): 25.8 µM (inactive) | GI50 (U-251): 18.6 µM (inactive) | GI50 (UACC-257): 17.8 µM (inactive) | GI50 (UACC-62): 16.6 µM (inactive) | GI50 (UO-31): 19.7 µM (inactive)

CC(C)(O)/C=C/C(=O)[C@](C)(O)[C@H]1[C@H](O)C[C@@]2(C)[C@@H]3CC=C4[C@@H](C[C@H](O)C(=O)C4(C)C)[C@]3(C)C(=O)C[C@]12C [CUCURBITACIN D]
GI50 (786-0): 0.1 µM (active) | GI50 (A498): 0.0506 µM (active) | GI50 (A549): 0.177 µM (active) | GI50 (CAKI-1): 0.116 µM (active) | GI50 (CCRF-CEM): 0.0687 µM (active) | GI50 (COLO 205): 0.181 µM (active) | GI50 (DLD-1): 0.0863 µM (active) | GI50 (DMS-114): 0.199 µM (active) | GI50 (DMS-273): 0.034 µM (active) | GI50 (EKVX): 0.375 µM (active) | GI50 (HCT-116): 0.112 µM (active) | GI50 (HL-60): 0.262 µM (active) | GI50 (HOP-18): 0.0748 µM (active) | GI50 (HOP-62): 0.198 µM (active) | GI50 (HOP-92): 0.195 µM (active) | GI50 (HT-29): 0.112 µM (active) | GI50 (IGROV-1): 0.376 µM (active) | GI50 (K562): 0.287 µM (active) | GI50 (KM-20L2): 0.163 µM (active) | GI50 (KM12): 0.624 µM (active) | GI50 (LOX IMVI): 0.0562 µM (active) | GI50 (LXFL 529): 0.073 µM (active) | GI50 (M14): 0.076 µM (active) | GI50 (M19-MEL): 0.391 µM (active) | GI50 (MOLT-4): 0.953 µM (active) | GI50 (Malme-3M): 0.0679 µM (active) | GI50 (NCI-H226): 0.277 µM (active) | GI50 (NCI-H23): 1.07 µM (active) | GI50 (NCI-H460): 0.0895 µM (active) | GI50 (NCI-H522): 0.128 µM (active) | GI50 (OVCAR-3): 0.201 µM (active) | GI50 (OVCAR-5): 1.04 µM (active) | GI50 (OVCAR-8): 0.65 µM (active) | GI50 (RPMI-8226): 0.0228 µM (active) | GI50 (RXF 393): 0.0964 µM (active) | GI50 (SF-268): 0.104 µM (active) | GI50 (SF-295): 0.344 µM (active) | GI50 (SF-539): 0.0826 µM (active) | GI50 (SK-MEL-28): 0.0653 µM (active) | GI50 (SK-MEL-2): 0.0543 µM (active) | GI50 (SK-OV-3): 0.281 µM (active) | GI50 (SN12C): 0.792 µM (active) | GI50 (SNB-19): 0.249 µM (active) | GI50 (SNB-75): 0.59 µM (active) | GI50 (SNB-78): 0.0867 µM (active) | GI50 (SR): 0.118 µM (active) | GI50 (SW-620): 0.0914 µM (active) | GI50 (TK-10): 0.239 µM (active) | GI50 (U-251): 0.0923 µM (active) | GI50 (UACC-257): 0.0968 µM (active) | GI50 (UACC-62): 0.0438 µM (active) | GI50 (UO-31): 0.272 µM (active)
